Data as given in ChEMBL document CHEMBL3745638, “Synthesis and biological evaluation of a novel artesunate-podophyllotoxin conjugate as anticancer agent” (Bioorg Med Chem Lett, 2016).
Calls of active or inactive are those of the source. No cut-off for these calls is given here.

How the values were obtained:
[1] = tested on: K562; assay: Antiproliferative activity against human K562 cells assessed as growth inhibition after 72 hrs by CCK-8 assay; assay type: functional, cell-based; conditions: K562, 72 h
[2] = Antiproliferative activity against human K562/ADR cells assessed as growth inhibition after 72 hrs by CCK-8 assay; assay type: functional, cell-based
[3] = tested on: HepG2; assay: Antiproliferative activity against human HepG2 cells assessed as growth inhibition after 72 hrs by CCK-8 assay; assay type: functional, cell-based; conditions: HepG2, 72 h
[4] = tested on: A549; assay: Antiproliferative activity against human A549 cells assessed as growth inhibition after 72 hrs by CCK-8 assay; assay type: functional, cell-based; conditions: A549, 72 h
[5] = tested on: HeLa; assay: Antiproliferative activity against human HeLa cells assessed as growth inhibition after 72 hrs by CCK-8 assay; assay type: functional, cell-based
[6] = tested on: HUVEC; assay: Antiproliferative activity against HUVEC assessed as growth inhibition after 72 hrs by CCK-8 assay; assay type: cell-based; conditions: Homo sapiens
[7] = tested on: K562; assay: Resistance factor, ratio of IC50 for human K562/ADR cells to IC50 for human K562 cells; assay type: functional
[8] = Cell cycle arrest in human K562/ADR cells assessed as accumulation in G2/M phase at 0.1 uM after 48 hrs by propidium iodide staining-based flow cytometry (reference value: 8.32 +/- 0.81%); assay type: functional
[9] = tested on: K562/Adr; assay: Induction of apoptosis in human K562/ADR cells assessed as viable cells at 0.1 uM after 48 hrs by Annexin V-APC/7-AAD staining based flow cytometry (reference value: 93.25%); assay type: functional; conditions: read-out: Activity
[10] = tested on: K562/Adr; assay: Induction of apoptosis in human K562/ADR cells assessed as early apoptotic cells at 0.1 uM after 48 hrs by Annexin V-APC/7-AAD staining based flow cytometry (reference value: 1.49%); assay type: functional
[11] = tested on: K562/Adr; assay: Induction of apoptosis in human K562/ADR cells assessed as late apoptotic cells at 0.1 uM after 48 hrs by Annexin V-APC/7-AAD staining based flow cytometry (reference value: 1.69%); assay type: functional
[12] = tested on: K562/Adr; assay: Induction of apoptosis in human K562/ADR cells assessed as necrotic cells at 0.1 uM after 48 hrs by Annexin V-APC/7-AAD staining based flow cytometry (reference value: 3.57%); assay type: functional
[13] = tested on: K562/Adr; assay: Induction of apoptosis in human K562/ADR cells assessed as induction of cell shrinkage at 0.1 uM after 48 hrs by Hoechst 33342 staining based fluorescence microscopy; assay type: functional
[14] = tested on: K562/Adr; assay: Induction of apoptosis in human K562/ADR cells assessed as nuclear fragmentation at 0.1 uM after 48 hrs by Hoechst 33342 staining based fluorescence microscopy; assay type: functional, cell-based
[15] = tested on: K562/Adr; assay: Induction of apoptosis in human K562/ADR cells assessed as nuclear condensation at 0.1 uM after 48 hrs by Hoechst 33342 staining based fluorescence microscopy; assay type: functional, cell-based
[16] = tested on: K562/Adr; assay: Inhibition of P-glycoprotein in human K562/ADR cells at 0.1 uM after 48 hrs by Western blot analysis; assay type: cell-based
[17] = molecular target: T1, Tubulin (Homo sapiens) (UniProt P68371+Q9H4B7+P0DPH7+P68366+Q13509+Q71U36+P04350+Q3ZCM7+P07437+P68363+Q9BQE3+Q6PEY2+Q13885+Q9BVA1+Q9BUF5); conditions: K562/Adr, 0.2 uM
Description: Inhibition of tubulin polymerization in human K562/ADR cells assessed as reduction in microtubule density at 0.2 uM after 8 hrs by DAPI staining based immunofluorescence microscopy

[18] = molecular target: T1, Tubulin (Homo sapiens); conditions: K562/Adr, 0.2 uM; remark: listed apart in the source
Description: Inhibition of tubulin polymerization in human K562/ADR cells assessed as microtubule disruption at 0.2 uM after 8 hrs by DAPI staining based immunofluorescence microscopy

[19] = Cell cycle arrest in human K562/ADR cells assessed as accumulation in G2/M phase at 2.5 uM after 48 hrs by propidium iodide staining-based flow cytometry (reference value: 8.32 +/- 0.81%); assay type: functional
[20] = tested on: K562/Adr; assay: Induction of apoptosis in human K562/ADR cells assessed as viable cells at 2.5 uM after 48 hrs by Annexin V-APC/7-AAD staining based flow cytometry (reference value: 93.25%); assay type: functional; conditions: read-out: Activity
[21] = tested on: K562/Adr; assay: Induction of apoptosis in human K562/ADR cells assessed as early apoptotic cells at 2.5 uM after 48 hrs by Annexin V-APC/7-AAD staining based flow cytometry (reference value: 1.49%); assay type: functional
[22] = tested on: K562/Adr; assay: Induction of apoptosis in human K562/ADR cells assessed as late apoptotic cells at 2.5 uM after 48 hrs by Annexin V-APC/7-AAD staining based flow cytometry (reference value: 1.69%); assay type: functional
[23] = tested on: K562/Adr; assay: Induction of apoptosis in human K562/ADR cells assessed as necrotic cells at 2.5 uM after 48 hrs by Annexin V-APC/7-AAD staining based flow cytometry (reference value: 3.57%); assay type: functional
[24] = tested on: K562/Adr; assay: Induction of apoptosis in human K562/ADR cells assessed as induction of cell shrinkage at 2.5 uM after 48 hrs by Hoechst 33342 staining based fluorescence microscopy; assay type: functional
[25] = tested on: K562/Adr; assay: Induction of apoptosis in human K562/ADR cells assessed as nuclear fragmentation at 2.5 uM after 48 hrs by Hoechst 33342 staining based fluorescence microscopy; assay type: functional, cell-based
[26] = tested on: K562/Adr; assay: Induction of apoptosis in human K562/ADR cells assessed as nuclear condensation at 2.5 uM after 48 hrs by Hoechst 33342 staining based fluorescence microscopy; assay type: functional, cell-based
[27] = tested on: K562/Adr; assay: Inhibition of P-glycoprotein in human K562/ADR cells at 2.5 uM after 48 hrs by Western blot analysis; assay type: cell-based
[28] = molecular target: T1, Tubulin (Homo sapiens); assay: Inhibition of tubulin polymerization in human K562/ADR cells assessed as reduction in microtubule density at 5 uM after 8 hrs by DAPI staining based immunofluorescence microscopy; assay type: cell-based
[29] = molecular target: T1, Tubulin (Homo sapiens); assay: Inhibition of tubulin polymerization in human K562/ADR cells assessed as microtubule disruption at 5 uM after 8 hrs by DAPI staining based immunofluorescence microscopy; assay type: cell-based
[30] = Cell cycle arrest in human K562/ADR cells assessed as accumulation in G2/M phase at 6.5 uM after 48 hrs by propidium iodide staining-based flow cytometry (reference value: 8.32 +/- 0.81%); assay type: functional
[31] = tested on: K562/Adr; assay: Induction of apoptosis in human K562/ADR cells assessed as viable cells at 6.5 uM after 48 hrs by Annexin V-APC/7-AAD staining based flow cytometry (reference value: 93.25%); assay type: functional; conditions: read-out: Activity
[32] = tested on: K562/Adr; assay: Induction of apoptosis in human K562/ADR cells assessed as early apoptotic cells at 6.5 uM after 48 hrs by Annexin V-APC/7-AAD staining based flow cytometry (reference value: 1.49%); assay type: functional
[33] = tested on: K562/Adr; assay: Induction of apoptosis in human K562/ADR cells assessed as late apoptotic cells at 6.5 uM after 48 hrs by Annexin V-APC/7-AAD staining based flow cytometry (reference value: 1.69%); assay type: functional
[34] = tested on: K562/Adr; assay: Induction of apoptosis in human K562/ADR cells assessed as necrotic cells at 6.5 uM after 48 hrs by Annexin V-APC/7-AAD staining based flow cytometry (reference value: 3.57%); assay type: functional
[35] = tested on: K562/Adr; assay: Induction of apoptosis in human K562/ADR cells assessed as induction of cell shrinkage at 6.5 uM after 48 hrs by Hoechst 33342 staining based fluorescence microscopy; assay type: functional
[36] = tested on: K562/Adr; assay: Induction of apoptosis in human K562/ADR cells assessed as nuclear fragmentation at 6.5 uM after 48 hrs by Hoechst 33342 staining based fluorescence microscopy; assay type: functional, cell-based
[37] = tested on: K562/Adr; assay: Induction of apoptosis in human K562/ADR cells assessed as nuclear condensation at 6.5 uM after 48 hrs by Hoechst 33342 staining based fluorescence microscopy; assay type: functional, cell-based
[38] = tested on: K562/Adr; assay: Inhibition of P-glycoprotein in human K562/ADR cells at 6.5 uM after 48 hrs by Western blot analysis; assay type: cell-based
[39] = molecular target: T1, Tubulin (Homo sapiens); assay: Inhibition of tubulin polymerization in human K562/ADR cells assessed as reduction in microtubule density at 13 uM after 16 hrs by DAPI staining based immunofluorescence microscopy; assay type: cell-based
[40] = molecular target: T1, Tubulin (Homo sapiens); assay: Inhibition of tubulin polymerization in human K562/ADR cells assessed as microtubule disruption at 13 uM after 16 hrs by DAPI staining based immunofluorescence microscopy; assay type: cell-based

COc1cc([C@@H]2c3cc4c(cc3[C@@H](O[C@@H]3O[C@@H]5CO[C@@H](C)O[C@H]5[C@H](O)[C@H]3O)[C@H]3COC(=O)[C@H]23)OCO4)cc(OC)c1O [ETOPOSIDE]
IC50 [1]: 0.413 µM | IC50 [2]: 2.02 µM | IC50 [3]: 1.75 µM | IC50 [4]: 2.68 µM | IC50 [5]: 1.6 µM | IC50 [6]: 1.34 µM | Ratio IC50 [7]: 4.903

COc1cc([C@@H]2c3cc4c(cc3[C@H](O)[C@H]3COC(=O)[C@H]23)OCO4)cc(OC)c1OC [PODOFILOX]
IC50 [1]: 0.006 µM | IC50 [2]: 0.085 µM | IC50 [3]: 0.014 µM | IC50 [4]: 0.014 µM | IC50 [5]: 0.012 µM | IC50 [6]: 0.014 µM | Ratio IC50 [7]: 14.166 | Activity [8]: 33.2% | viability at 0.1 µM [9]: 54.4% | Activity [10]: 24.7% | Activity [11]: 10.65% | Activity [12]: 10.26% | Activity [13]: Active | Activity [14]: Active | Activity [15]: Active | inhibition [16]: Active | inhibition [17]: Active | inhibition [18]: Active

COc1cc([C@@H]2c3cc4c(cc3[C@H](OC(=O)CCC(=O)O[C@H]3O[C@@H]5O[C@@]6(C)CC[C@H]7[C@H](C)CC[C@@H]([C@H]3C)[C@@]57OO6)[C@H]3COC(=O)[C@H]23)OCO4)cc(OC)c1OC
IC50 [1]: 0.453 µM | IC50 [2]: 2.02 µM | IC50 [3]: 0.672 µM | IC50 [4]: 3.01 µM | IC50 [5]: 0.936 µM | IC50 [6]: 0.72 µM | Ratio IC50 [7]: 4.454 | Activity [19]: 21.4% | viability at 2.5 µM [20]: 88.1% | Activity [21]: 2.68% | Activity [22]: 2.82% | Activity [23]: 6.39% | Activity [24]: Active | Activity [25]: Active | Activity [26]: Active | inhibition [27]: Active | inhibition [28]: Active | inhibition [29]: Active

C[C@H]1[C@H](OC(=O)CCC(=O)O)O[C@@H]2O[C@@]3(C)CC[C@H]4[C@H](C)CC[C@@H]1[C@@]24OO3 [ARTESUNATE]
IC50 [1]: 6 µM | IC50 [2]: 6.26 µM | IC50 [3]: 22.2 µM | IC50 [4]: 15.9 µM | IC50 [5]: 19 µM | IC50 [6]: 1.09 µM | Ratio IC50 [7]: 1.042 | Activity [30]: 16.9% | viability at 6.5 µM [31]: 77.5% | Activity [32]: 5.97% | Activity [33]: 9.31% | Activity [34]: 7.2% | Activity [35]: Active | Activity [36]: Active | Activity [37]: Active | inhibition [38]: Active | inhibition [39]: Active | inhibition [40]: Active
